Converted amounts (≈) assume the structure as drawn. The source made the active and inactive calls. The rule behind the calls is not given here.
Assays:
Escherichia coli [1] = test: Antimicrobial activity against Escherichia coli ATCC 25922 assessed as inhibition of bacterial growth by broth dilution method; assay type: functional
Bacillus subtilis = test: Antimicrobial activity against Bacillus subtilis ATCC 6633 assessed as inhibition of bacterial growth by broth dilution method; assay type: functional
Klebsiella pneumoniae = test: Antimicrobial activity against Klebsiella pneumoniae ATCC 27736 assessed as inhibition of bacterial growth by broth dilution method; assay type: functional
Pseudomonas aeruginosa [2] = test: Antimicrobial activity against Pseudomonas aeruginosa ATCC BAA-427 assessed as inhibition of bacterial growth by broth dilution method; assay type: functional
[3] = Stability of the compound in human serum assessed as intact compound remaining at 2 mg/ml measured after 60 mins by […] analysis; assay type: ADME, cell-free; conditions: read-out: Stability
[4] = Acute toxicity in BALB/c mouse assessed as survival at 20 mg/kg administered intravenously measured after 7 days; assay type: organism-based; conditions: in vivo, iv, 168 h, time 7 day
THP-1 = test: Cytotoxicity against human monocyte THP-1 cell line assessed as cell viability measured for 24 hrs using ELISA plate reader; assay type: cell-based; conditions: thp-1, 24 h
[5] = Retention time of the compound analysed by RP-HPLC analysis; assay type: physicochemical
[6] = Hemolytic activity in human RBC at 150 uM measured after 40 min by hemolysis assay relative to control; assay type: ADME, tissue-based, Erythrocyte; conditions: red blood cells (RBC), read-out: Activity
Staphylococcus aureus [7] = test: Antimicrobial activity against Staphylococcus aureus ATCC 25923 assessed as inhibition of bacterial growth by broth dilution method; assay type: functional
Staphylococcus aureus [8] = test: Antimicrobial activity against methicilin- resistant Staphylococcus aureus ATCC 33591 assessed as inhibition of bacterial growth by broth dilution method; assay type: functional
Staphylococcus aureus [9] = test: Antimicrobial activity against multidrug-resistant Staphylococcus aureus ATCC BAA-44 assessed as inhibition of bacterial growth by broth dilution method; assay type: functional
[10] = Hemolytic activity in human RBC measured after 40 mins; assay type: ADME, tissue-based, Erythrocyte; conditions: red blood cells (RBC)
Escherichia coli [11] = test: Antibacterial activity against Escherichia coli ATCC 25922 in presence of 10 percent fresh human serum measured after 1 hr; assay type: functional
Escherichia coli [12] = test: Antibacterial activity against Escherichia coli ATCC 25922 in presence of 4.5 mM KCl measured after 1 hr; assay type: functional
Escherichia coli [13] = test: Antibacterial activity against Escherichia coli ATCC 25922 in presence of 150 mM NaCl measured after 1 hr; assay type: functional
Escherichia coli [14] = test: Antibacterial activity against Escherichia coli ATCC 25922 in presence of temperature ranging from 4 to 90 degC measured after 1 hr; assay type: functional
Cell membrane [15] = test: Induction of membrane damage in Escherichia coli assessed as disruption of membrane integrity at 10 uM incubated for 30 min by propidium iodide staining based assay
[16] = Disruption of membrane integrity in human RBC cells assessed as membrane damage at 150 uM incubated for 15 min by Alexa fluor-annexin V staining based assay (reference value: 0%); assay type: functional, Red blood cell; conditions: 0.25 h
Cell membrane [17] = test: Inner membrane permeability of the compound in Escherichia coli ATCC 25922 by ONPG assay; assay type: ADME, subcellular
Cell membrane [18] = test: Disruption of plasma membrane in Staphylococcus aureus ATCC 25923 at 10 uM by SYTOX-green uptake assay; assay type: cell membranes; conditions: TDE = time-dependent effect
[19] = Permeability of the compound in PC/PG lipid vesicles by spectrofluorometry; assay type: ADME
Lipid bilayer = test: Induction of membrane depolarization in mammalian mimetic PC/Chol vesicles assessed as membrane permeabilization
Pseudomonas aeruginosa [20] = test: Antibacterial activity against Pseudomonas aeruginosa BAA 427 assessed as resistance development by measuring fold change in MIC after 30 passages with serially diluted peptides; assay type: functional
Escherichia coli [21] = test: Bactericidal activity against Escherichia coli ATCC 25922 assessed as bacterial killing at 5 times MIC measured after 60 min; assay type: functional, organism-based
Pseudomonas aeruginosa [22] = test: Antibacterial activity against Pseudomonas aeruginosa infected in Balb/c mouse stomach assessed as animal survival at 5 mg/kg, ip after 7 days; assay type: functional; conditions: 168 h, time 7 day
Pseudomonas aeruginosa [23] = test: Antibacterial activity against Pseudomonas aeruginosa infected in Balb/c mouse stomach assessed as animal survival at 10 mg/kg, ip after 7 days; assay type: functional; conditions: 168 h, time 7 day
Pseudomonas aeruginosa [24] = test: Anti-infective activity in Pseudomonas aeruginosa infected BALB/c mouse spleen assessed as reduction in bacterial growth at 10 mg/kg, ip after 12 hrs; assay type: functional, organism-based
Pseudomonas aeruginosa [25] = test: Anti-infective activity in Pseudomonas aeruginosa infected BALB/c mouse spleen assessed as reduction in bacterial growth at 10 mg/kg, ip after 18 hrs; assay type: functional, organism-based
Pseudomonas aeruginosa [26] = test: Anti-infective activity in Pseudomonas aeruginosa infected BALB/c mouse liver assessed as reduction in bacterial growth at 10 mg/kg, ip after 12 hrs; assay type: functional, organism-based
Pseudomonas aeruginosa [27] = test: Anti-infective activity in Pseudomonas aeruginosa infected BALB/c mouse liver assessed as reduction in bacterial growth at 10 mg/kg, ip after 18 hrs; assay type: functional, organism-based
Pseudomonas aeruginosa [28] = test: Anti-infective activity in Pseudomonas aeruginosa infected BALB/c mouse kidney assessed as reduction in bacterial growth at 10 mg/kg, ip after 12 hrs; assay type: functional, organism-based
Pseudomonas aeruginosa [29] = test: Anti-infective activity in Pseudomonas aeruginosa infected BALB/c mouse kidney assessed as reduction in bacterial growth at 10 mg/kg, ip after 18 hrs; assay type: functional, organism-based
[30] = tested on: Mycolicibacterium smegmatis; test: Anti-mycobacterial activity against Mycobacterium smegmatis assessed as growth inhibition at 16.13 uM relative to control; assay type: functional
[31] = tested on: Mycobacterium tuberculosis; test: Anti-mycobacterial activity against Mycobacterium tuberculosis H37Ra assessed as growth inhibition at 16.13 uM relative to control; assay type: functional
[32] = tested on: Mycolicibacterium smegmatis; test: Anti-mycobacterial activity against Mycobacterium smegmatis assessed as reduction in CFU at 3 times MIC after 12 hrs; assay type: functional, organism-based
[33] = tested on: Mycolicibacterium smegmatis; test: Anti-mycobacterial activity against Mycobacterium smegmatis assessed as reduction in CFU at 3 times MIC after 24 hrs; assay type: functional, organism-based
[34] = tested on: Mycolicibacterium smegmatis; test: Anti-mycobacterial activity against Mycobacterium smegmatis infected in human THP-1 cells assessed as reduction in CFU at 24.19 uM after 24 hrs; assay type: functional
[35] = tested on: Mycolicibacterium smegmatis; test: Anti-mycobacterial activity against Mycobacterium smegmatis infected in human THP-1 cells assessed as reduction in CFU at 40.13 uM after 24 hrs; assay type: functional
[36] = Acute toxicity in BALB/c mouse assessed as change in body weight at 20 mg/kg administered intravenously measured after 7 days; assay type: organism-based; conditions: in vivo, iv, 168 h, time 7 day

With CC(C)C[C@H](NC(=O)[C@H](CCCNC(=N)N)NC(=O)CNC(=O)[C@H](CC(C)C)NC(=O)[C@@H](NC(=O)[C@@H](CCCCN)NC(=O)[C@@H](NC(=O)[C@H](CC(C)C)NC(=O)[C@H](CCCNC(=N)N)NC(=O)CNC(=O)[C@H](CC(C)C)NC(=O)[C@@H](NC(=O)[C@@H](N)CCCCN)C(C)C)C(C)C)C(C)C)C(=O)N[C@H](C(N)=O)C(C)C the MIC (Escherichia coli [1]) was 1 µM (≈ 1.55 µg/mL), the MIC (Bacillus subtilis) was 2 µM (≈ 3.1 µg/mL) and the MIC (Klebsiella pneumoniae) was 4 µM (≈ 6.2 µg/mL). The MIC (Pseudomonas aeruginosa [2]) was 4 µM (≈ 6.2 µg/mL), the remaining at 1 h, 2 mg/ml [3] was 88% and the Activity [4] was “Toxic”. The Activity (THP-1) was “Non-Toxic”, the Retention_time [5] was 14.6 min and the hemolysis at 40 min, 150 µM [6] was 0%. It also gave an MIC (Staphylococcus aureus [7]) of 1 µM (≈ 1.55 µg/mL), an MIC (Staphylococcus aureus [8]) of 2 µM (≈ 3.1 µg/mL) and an MIC (Staphylococcus aureus [9]) of 2 µM (≈ 3.1 µg/mL). It also gave an HC50 at 40 min [10] of over 2 mM, an MIC (Escherichia coli [11]) of 2 µM and an MIC (Escherichia coli [12]) of 8 µM. For the same compound, the MIC (Escherichia coli [13]) was 4 µM, the MIC (Escherichia coli [14]) was 2 µM and the Activity (Cell membrane [15]) was “Active”. The Activity [16] was 2.1%, the Activity (Cell membrane [17]) was “Active” and the Activity (Cell membrane [18]) was “Tde”. The Activity [19] was “Active”, the Activity (Lipid bilayer) was “inactive” and the “fold change (FC)” value (Pseudomonas aeruginosa [20]) was 2. The Activity (Escherichia coli [21]) was “Active”, the survival at 5 mg/kg (Pseudomonas aeruginosa [22]) was 40% and the survival at 10 mg/kg (Pseudomonas aeruginosa [23]) was 80%. The Activity (Pseudomonas aeruginosa [24]) was “Active”, the Activity (Pseudomonas aeruginosa [25]) was “Active” and the Activity (Pseudomonas aeruginosa [26]) was “Active”. For the same compound, the Activity (Pseudomonas aeruginosa [27]) was “Active”, the Activity (Pseudomonas aeruginosa [28]) was “Active” and the Activity (Pseudomonas aeruginosa [29]) was “Active”. For the same compound, the inhibition at 16.13 µM [30] was 95%, the inhibition at 16.13 µM [31] was 95% and the Activity [32] was “Active”. The Activity [33] was “Active”, the inhibition at 24.19 µM [34] was 40% and the inhibition at 40.13 µM [35] was 80%. The Activity [36] was “Non-Toxic”.
